Measured values from patent US20220050096A1, “ANALYTE-SENSITIVE PROBES AND CONTACT LENS FOR DIAGNOSIS OF OCULAR PATHOLOGIES” (University Of Maryland, Baltimore, priority 2020, published 2022).

What was measured:
[1] = Fluorescence anisotropy decays of SG in buffer and sodium probes in Biofinity lenses; format: physicochemical
Procedure: Three decay time components were required for the intensity decays. Fluorescence anisotropy decays were determined by individual measurements of the polarized intensity decays with corrections for the G-factor. Resolution of multi-exponential decays is not necessary. The average lifetime can be used as a single measurement.
Similar anisotropy decays have been observed for numerous fluorophores bound to large proteins or membranes.

[2] = Chloride-dependent intensity decay analysis of SPQ-C18 in MyDay contact lenses, 20 mM MOPS pH 7.3; format: physicochemical
Procedure: Fluorescence Spectroscopic Measurements. Fluorescence intensities and intensity decays were measured using a Varian™ Eclipse 4 spectrofluorometer and a FluoTime300 instrument from PicoQuant™ (Berlin, Germany) and analyzed with the EasyTau™ software. The excitation source was a 473 nm laser diode with a repetition rate of 40 MHZ and a pulse width less than 100 ps. In other embodiments, the excitation source for SG-PL was at 495 nm from a Solea™ supercontinuum laser (PicoQuant™, Germany) and a 375 nm laser diode (PDL 375, PicoQuant™), a repetition rate of 40 MHz, and a pulse width less than 100 ps. Some intensity and lifetime measurements for SG-PL (as indicated) were performed using Alba V confocal fluorescence lifetime microscopy, FLIM (ISS, Urbana, Ill.), with excitation source of a 473 nm laser diode with a repetition rate of 40 MHz and a pulse width near 250 ps.
Intensity decays were measured at the emission maximum with the band of 10 to 20 nm, analyzed in terms of the multi-exponential model:
I(t)=Σαi exp(−t/ti) (equation 1)
where ti are the individual decay times and αi the initial time-zero amplitudes. The mean decay time can be represented in two ways. The average lifetime is given by:
where Σαi=1.0 and Σfi=1.0. The term fi=αi τi is proportional to the fractional contribution of each component to the total intensity decay. The term τi/Σαi τi is the fractional contribution to the steady state emission. Here, we use the amplitude-weighted lifetime given by
which is appropriate when the emission is from a single fluorophore with a changing quantum yield. For a single exponential decay, the lifetime is given by τ=1.0/(knr+Γ) and the quantum yield is given by Q=Γ/(knr+Γ) where knr is the sum of all non-radiative decay rates and Γ is the radiative decay rate. The value of Γ is determined by the molecular extinction coefficient that remains constant under most conditions. For a single type of fluorophore with a constant value of Γ the normalized αi values represent the molecular fraction of each decay time component. The value of αi and τi were determined by non-linear least squares fitting using PicoQuant™ software.
Quenching by Chloride. Collisional quenching occurs, for example, when SPQ-C18 (also referred to as OD-MQB (N-Octadecyl-6-methoxyquinolinium bromide)) has a diffusion collision with a chloride ion. The intensities (I) and lifetimes (6) are analyzed using the Stern-Volmer equation,
SPQ-C18 was synthesized using 6-methoxy quinolinium (SPQ) and 1-bromooctadecane (C18) as described in the art. Lenses were labeled by incubation with 3 ml of a 1 μM solution of SPQ-C18 in methanol-water. SPQ-C18 bound rapidly to the Biofinity™ lenses. […] Unless stated otherwise, all spectral measurements conducted for the present study were performed in 20 mM MOPS buffer, 8 mM KCl, pH 7.2, at room temperature.

In the case of `COc1cc(N2CCOCCOCCN(c3cc(OC)c(NC(=O)c4ccc(-c5c6cc(Cl)c(=O)cc-6oc6cc([O-])c(Cl)cc56)c(C(=O)[O-])c4)cc3OC)CCOCC2)c(OC)cc1NC(=O)c1ccc(-c2c3cc(Cl)c(=O)cc-3oc3cc([O-])c(Cl)cc23)c(C(=O)[O-])c1.C[N+](C)(C)C.C[N+](C)(C)C.C[N+](C)(C)C.C[N+](C)(C)C` [SG], the anisotropy decay [1] is reported as “decayed quickly to zero”.

`CCCCCCCCCCCCCCCCCC[n+]1cccc2cc(OC)ccc21` [SPQ-C18, N-Octadecyl-6-methoxyquinolinium bromide] gave a f1 ([2]; NaCl 0 mM) of 0.074, a f2 ([2]; NaCl 0 mM) of 0.191 and a f3 ([2]; NaCl 0 mM) of 0.735. It also gave a α1 ([2]; NaCl 0 mM) of 0.560, a α2 ([2]; NaCl 0 mM) of 0.187 and a α3 ([2]; NaCl 0 mM) of 0.253. It also gave a τ1 ([2]; NaCl 0 mM) of 1.03 ns, a τ2 ([2]; NaCl 0 mM) of 8.00 ns and a τ3 ([2]; NaCl 0 mM) of 22.78 ns. The τf ([2]; NaCl 0 mM) was 18.36 ns, the τα ([2]; NaCl 0 mM) was 7.83 ns and the f1 ([2]; NaCl 10 mM) was 0.078. It also gave a f2 ([2]; NaCl 10 mM) of 0.315, a f3 ([2]; NaCl 10 mM) of 0.607 and a α1 ([2]; NaCl 10 mM) of 0.496. For the same molecule, the α2 ([2]; NaCl 10 mM) was 0.290, the α3 ([2]; NaCl 10 mM) was 0.214 and the τ1 ([2]; NaCl 10 mM) was 1.05 ns. It also gave a τ2 ([2]; NaCl 10 mM) of 7.22 ns, a τ3 ([2]; NaCl 10 mM) of 18.80 ns and a τf ([2]; NaCl 10 mM) of 13.76 ns. The τα ([2]; NaCl 10 mM) was 6.63 ns, the f1 ([2]; NaCl 20 mM) was 0.102 and the f2 ([2]; NaCl 20 mM) was 0.306. It also gave a f3 ([2]; NaCl 20 mM) of 0.592, a α1 ([2]; NaCl 20 mM) of 0.554 and a α2 ([2]; NaCl 20 mM) of 0.263. It also gave a α3 ([2]; NaCl 20 mM) of 0.183, a τ1 ([2]; NaCl 20 mM) of 1.12 ns and a τ2 ([2]; NaCl 20 mM) of 7.04 ns. The τ3 ([2]; NaCl 20 mM) was 19.59 ns, the τf ([2]; NaCl 20 mM) was 13.86 ns and the τα ([2]; NaCl 20 mM) was 6.05 ns. For the same molecule, the f1 ([2]; NaCl 40 mM) was 0.126, the f2 ([2]; NaCl 40 mM) was 0.375 and the f3 ([2]; NaCl 40 mM) was 0.499. For the same molecule, the α1 ([2]; NaCl 40 mM) was 0.590, the α2 ([2]; NaCl 40 mM) was 0.275 and the α3 ([2]; NaCl 40 mM) was 0.136. The τ1 ([2]; NaCl 40 mM) was 1.06 ns, the τ2 ([2]; NaCl 40 mM) was 6.78 ns and the τ3 ([2]; NaCl 40 mM) was 18.24 ns. It also gave a τf ([2]; NaCl 40 mM) of 11.78 ns, a τα ([2]; NaCl 40 mM) of 4.96 ns and a f1 ([2]; NaCl 80 mM) of 0.148. The f2 ([2]; NaCl 80 mM) was 0.373, the f3 ([2]; NaCl 80 mM) was 0.478 and the α1 ([2]; NaCl 80 mM) was 0.601. For the same molecule, the α2 ([2]; NaCl 80 mM) was 0.284, the α3 ([2]; NaCl 80 mM) was 0.115 and the τ1 ([2]; NaCl 80 mM) was 1.05 ns. The τ2 ([2]; NaCl 80 mM) was 5.58 ns, the τ3 ([2]; NaCl 80 mM) was 17.70 ns and the τf ([2]; NaCl 80 mM) was 10.71 ns. The τα ([2]; NaCl 80 mM) was 4.25 ns, the f1 ([2]; NaCl 140 mM) was 0.177 and the f2 ([2]; NaCl 140 mM) was 0.368. For the same molecule, the f3 ([2]; NaCl 140 mM) was 0.455, the α1 ([2]; NaCl 140 mM) was 0.649 and the α2 ([2]; NaCl 140 mM) was 0.253. The α3 ([2]; NaCl 140 mM) was 0.099, the τ1 ([2]; NaCl 140 mM) was 1.01 ns and the τ2 ([2]; NaCl 140 mM) was 5.39 ns. For the same molecule, the τ3 ([2]; NaCl 140 mM) was 17.05 ns, the τf ([2]; NaCl 140 mM) was 9.92 ns and the τα ([2]; NaCl 140 mM) was 3.70 ns. For the same molecule, the f1 ([2]; NaCl 220 mM) was 0.191, the f2 ([2]; NaCl 220 mM) was 0.425 and the f3 ([2]; NaCl 220 mM) was 0.284. The α1 ([2]; NaCl 220 mM) was 0.636, the α2 ([2]; NaCl 220 mM) was 0.282 and the α3 ([2]; NaCl 220 mM) was 0.081. The τ1 ([2]; NaCl 220 mM) was 0.94 ns, the τ2 ([2]; NaCl 220 mM) was 4.71 ns and the τ3 ([2]; NaCl 220 mM) was 14.81 ns. For the same molecule, the τf ([2]; NaCl 220 mM) was 7.87 ns and the τα ([2]; NaCl 220 mM) was 3.13 ns.
